Measured values taken from ChEMBL document CHEMBL3856204, “Chiral 6-aryl-furo[2,3-d]pyrimidin-4-amines as EGFR inhibitors” (Eur J Med Chem, 2016).

Key:
[1] = target: Epidermal growth factor receptor (Homo sapiens, UniProt P00533); experiment: Inhibition of recombinant human GST-tagged EGFR cytoplasmic domain (668 to 1210 residues) expressed in baculovirus by Z'-LYTE assay
[2] = target: Tyrosine-protein kinase Lyn (Homo sapiens) (UniProt P07948); experiment: Inhibition of His tagged C-terminal recombinant full length human LYN B expressed in baculovirus at 500 nM by Z'-LYTE assay
Sequence of Tyrosine-protein kinase Lyn (Homo sapiens) (P07948 2-512 limits assumed): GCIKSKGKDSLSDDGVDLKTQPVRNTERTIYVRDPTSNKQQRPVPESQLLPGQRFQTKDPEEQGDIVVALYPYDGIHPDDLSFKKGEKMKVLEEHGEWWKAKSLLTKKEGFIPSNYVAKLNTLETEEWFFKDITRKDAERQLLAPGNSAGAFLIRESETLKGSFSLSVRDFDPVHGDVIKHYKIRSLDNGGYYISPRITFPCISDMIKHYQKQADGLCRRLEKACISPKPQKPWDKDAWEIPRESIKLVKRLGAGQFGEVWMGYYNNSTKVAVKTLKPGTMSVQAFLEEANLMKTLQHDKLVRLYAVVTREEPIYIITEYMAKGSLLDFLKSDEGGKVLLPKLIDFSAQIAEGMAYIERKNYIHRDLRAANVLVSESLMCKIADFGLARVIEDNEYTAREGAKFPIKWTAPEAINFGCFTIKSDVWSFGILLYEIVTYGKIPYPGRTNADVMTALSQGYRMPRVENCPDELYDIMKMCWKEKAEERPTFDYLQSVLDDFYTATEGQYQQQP

[3] = target: Testis-specific serine/threonine-protein kinase 2 (Homo sapiens) (UniProt Q96PF2); experiment: Inhibition of His tagged recombinant full length human STK22B expressed in baculovirus at 500 nM by Z'-LYTE assay
Sequence of Testis-specific serine/threonine-protein kinase 2 (Homo sapiens) (Q96PF2 whole entry, the tested form may be a part): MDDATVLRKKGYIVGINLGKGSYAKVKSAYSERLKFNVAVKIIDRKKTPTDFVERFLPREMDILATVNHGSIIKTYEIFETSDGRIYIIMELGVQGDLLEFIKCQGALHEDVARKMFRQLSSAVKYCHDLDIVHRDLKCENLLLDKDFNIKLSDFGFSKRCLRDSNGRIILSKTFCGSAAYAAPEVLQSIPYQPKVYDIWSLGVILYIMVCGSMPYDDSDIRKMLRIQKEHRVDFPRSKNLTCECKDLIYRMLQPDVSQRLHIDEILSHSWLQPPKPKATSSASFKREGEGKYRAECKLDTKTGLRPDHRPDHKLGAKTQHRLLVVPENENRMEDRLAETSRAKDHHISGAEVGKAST

[4] = target: Angiopoietin-1 receptor (Homo sapiens) (UniProt Q02763); experiment: Inhibition of GST tagged recombinant human Tie2 cytoplasmic domain (817 to 1101 residues) expressed in baculovirus at 500 nM by Z'-LYTE assay
[5] = target: Receptor tyrosine-protein kinase erbB-4 (Homo sapiens) (UniProt Q15303); experiment: Inhibition of GST tagged recombinant human ERBB4 cytoplasmic domain (708 to 993 residues) expressed in baculovirus at 500 nM by Z'-LYTE assay
[6] = target: Tyrosine-protein kinase Fgr (Homo sapiens) (UniProt P09769); experiment: Inhibition of recombinant full length human C-terminal His-tagged FGR expressed in baculovirus at 500 nM by Z'-LYTE assay
[7] = target: Mitogen-activated protein kinase 1 (Homo sapiens) (UniProt P28482); experiment: Inhibition of GST tagged recombinant full length human ERK2 expressed in Escherichia coli at 500 nM by Z'-LYTE assay
Sequence of Mitogen-activated protein kinase 1 (Homo sapiens) (P28482 whole entry, the tested form may be a part): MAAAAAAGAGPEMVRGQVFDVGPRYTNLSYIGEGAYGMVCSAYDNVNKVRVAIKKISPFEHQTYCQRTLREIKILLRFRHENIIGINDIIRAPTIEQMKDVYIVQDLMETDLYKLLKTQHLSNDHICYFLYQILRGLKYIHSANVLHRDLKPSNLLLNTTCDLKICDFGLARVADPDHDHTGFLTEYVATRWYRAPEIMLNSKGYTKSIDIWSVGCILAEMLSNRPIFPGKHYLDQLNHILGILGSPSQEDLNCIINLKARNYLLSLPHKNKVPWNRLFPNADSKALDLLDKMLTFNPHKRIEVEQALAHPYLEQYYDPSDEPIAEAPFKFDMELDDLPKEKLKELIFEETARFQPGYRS

[8] = target: Vascular endothelial growth factor receptor 3 (Homo sapiens) (UniProt P35916); experiment: Inhibition of GST tagged recombinant human FLT4 cytoplasmic domain (800 to 1297 residues) expressed in baculovirus at 500 nM by Z'-LYTE assay
[9] = target: Proto-oncogene tyrosine-protein kinase Src (Homo sapiens) (UniProt P12931); experiment: Inhibition of recombinant full length human C-terminal His-tagged SRC expressed in baculovirus at 500 nM by Z'-LYTE assay
[10] = target: Tyrosine-protein kinase Lyn (Homo sapiens) (UniProt P07948); experiment: Inhibition of recombinant full length human N-terminal GST tagged LYN A expressed in insect cells at 500 nM by Z'-LYTE assay
[11] = target: Proto-oncogene tyrosine-protein kinase receptor Ret (Homo sapiens) (UniProt P07949); experiment: Inhibition of GST tagged recombinant human RET cytoplasmic domain (658 to 1114 residues) expressed in baculovirus at 500 nM by Z'-LYTE assay
[12] = target: Serine/threonine-protein kinase B-raf (Homo sapiens) (UniProt P15056); experiment: Inhibition of GST tagged recombinant full length human BRAF expressed in baculovirus at 500 nM by Z'-LYTE assay
Sequence of Serine/threonine-protein kinase B-raf (Homo sapiens) (P15056 whole entry): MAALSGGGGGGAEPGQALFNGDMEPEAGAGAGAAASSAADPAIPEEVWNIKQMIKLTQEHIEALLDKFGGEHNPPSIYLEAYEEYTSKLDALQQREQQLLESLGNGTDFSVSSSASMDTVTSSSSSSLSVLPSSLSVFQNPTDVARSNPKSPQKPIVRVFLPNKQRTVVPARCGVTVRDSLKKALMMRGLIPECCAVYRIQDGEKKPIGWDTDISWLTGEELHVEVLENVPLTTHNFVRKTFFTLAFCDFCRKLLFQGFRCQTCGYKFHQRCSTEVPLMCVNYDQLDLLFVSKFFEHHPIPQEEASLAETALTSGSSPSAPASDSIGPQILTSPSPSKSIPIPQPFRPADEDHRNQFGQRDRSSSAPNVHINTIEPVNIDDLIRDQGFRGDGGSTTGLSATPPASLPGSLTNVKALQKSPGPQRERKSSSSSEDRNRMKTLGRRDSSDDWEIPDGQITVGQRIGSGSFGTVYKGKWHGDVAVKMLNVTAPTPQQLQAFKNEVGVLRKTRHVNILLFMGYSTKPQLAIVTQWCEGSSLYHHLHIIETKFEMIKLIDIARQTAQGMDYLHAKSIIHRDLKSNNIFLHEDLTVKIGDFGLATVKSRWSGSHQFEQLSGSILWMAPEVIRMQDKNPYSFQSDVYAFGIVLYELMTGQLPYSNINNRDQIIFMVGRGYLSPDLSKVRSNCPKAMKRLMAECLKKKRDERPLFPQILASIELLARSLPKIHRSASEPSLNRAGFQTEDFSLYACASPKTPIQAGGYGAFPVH

[13] = target: Tyrosine-protein kinase CSK (Homo sapiens) (UniProt P41240); experiment: Inhibition of His tagged recombinant full length human CSK expressed in Escherichia coli at 500 nM by Z'-LYTE assay
[14] = target: Macrophage colony-stimulating factor 1 receptor (Homo sapiens) (UniProt P07333); experiment: Inhibition of His tagged recombinant human FMS cytoplasmic domain (538 to 910 residues) expressed in baculovirus at 500 nM by Z'-LYTE assay
[15] = target: Ephrin type-A receptor 1 (Homo sapiens) (UniProt P21709); experiment: Inhibition of GST tagged recombinant human EPHA1 cytoplasmic domain (568 to 976 residues) expressed in baculovirus at 500 nM by Z'-LYTE assay
[16] = target: Mast/stem cell growth factor receptor Kit (Homo sapiens) (UniProt P10721); experiment: Inhibition of His tagged recombinant human KIT cytoplasmic domain (544 to 976 residues) expressed in baculovirus at 500 nM by Z'-LYTE assay
[17] = target: Tyrosine-protein kinase FRK (Homo sapiens) (UniProt P42685); experiment: Inhibition of GST tagged recombinant full length human FRK expressed in baculovirus at 500 nM by Z'-LYTE assay
[18] = target: Receptor tyrosine-protein kinase erbB-2 (Homo sapiens) (UniProt P04626); experiment: Inhibition of His tagged recombinant human ErbB2 cytoplasmic domain (676 to 1255 residues) expressed in baculovirus at 500 nM by Z'-LYTE assay
[19] = target: Mitogen-activated protein kinase 14 (Homo sapiens) (UniProt Q16539); experiment: Inhibition of GST tagged recombinant full length human p38 alpha expressed in Escherichia coli at 500 nM by Z'-LYTE assay
[20] = target: Tyrosine-protein kinase ABL1 (Homo sapiens) (UniProt P00519); experiment: Inhibition of His tagged recombinant full length human ABL1 expressed in baculovirus at 500 nM by Z'-LYTE assay
Sequence of Tyrosine-protein kinase ABL1 (Homo sapiens) (P00519 whole entry): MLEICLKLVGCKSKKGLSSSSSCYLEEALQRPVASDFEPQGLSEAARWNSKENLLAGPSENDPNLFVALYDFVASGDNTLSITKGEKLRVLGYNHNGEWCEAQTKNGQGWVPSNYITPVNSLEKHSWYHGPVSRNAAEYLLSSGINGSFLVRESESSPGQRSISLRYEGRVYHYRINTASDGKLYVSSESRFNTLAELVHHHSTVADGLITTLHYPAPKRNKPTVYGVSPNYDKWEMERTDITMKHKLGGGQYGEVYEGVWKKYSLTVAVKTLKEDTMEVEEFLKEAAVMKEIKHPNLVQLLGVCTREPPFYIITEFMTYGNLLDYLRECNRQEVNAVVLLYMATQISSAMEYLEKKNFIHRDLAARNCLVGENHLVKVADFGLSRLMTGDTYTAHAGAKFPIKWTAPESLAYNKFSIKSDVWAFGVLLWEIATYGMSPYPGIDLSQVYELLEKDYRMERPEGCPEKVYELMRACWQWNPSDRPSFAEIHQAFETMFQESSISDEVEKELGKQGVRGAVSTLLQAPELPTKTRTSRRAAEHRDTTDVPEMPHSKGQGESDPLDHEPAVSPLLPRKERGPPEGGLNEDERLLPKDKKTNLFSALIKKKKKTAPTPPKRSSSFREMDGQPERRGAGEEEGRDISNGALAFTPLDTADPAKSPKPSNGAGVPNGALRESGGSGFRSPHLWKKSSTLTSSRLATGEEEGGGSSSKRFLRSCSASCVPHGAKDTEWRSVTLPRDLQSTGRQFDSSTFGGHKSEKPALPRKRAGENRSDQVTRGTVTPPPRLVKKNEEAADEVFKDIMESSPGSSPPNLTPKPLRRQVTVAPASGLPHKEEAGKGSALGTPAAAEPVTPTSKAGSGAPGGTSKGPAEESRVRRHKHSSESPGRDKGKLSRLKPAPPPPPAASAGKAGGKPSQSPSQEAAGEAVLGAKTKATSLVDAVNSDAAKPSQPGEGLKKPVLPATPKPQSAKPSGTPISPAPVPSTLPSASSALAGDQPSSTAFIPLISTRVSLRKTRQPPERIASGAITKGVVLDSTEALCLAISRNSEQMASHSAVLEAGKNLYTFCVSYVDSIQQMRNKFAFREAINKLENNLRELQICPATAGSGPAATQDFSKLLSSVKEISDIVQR

[21] = target: Tyrosine-protein kinase Fyn (Homo sapiens) (UniProt P06241); experiment: Inhibition of recombinant full length human C-terminal His-tagged FYN expressed in baculovirus at 500 nM by Z'-LYTE assay
[22] = target: Tyrosine-protein kinase Blk (Homo sapiens) (UniProt P51451); experiment: Inhibition of His tagged recombinant full length human BLK expressed in baculovirus at 500 nM by Z'-LYTE assay
Sequence of Tyrosine-protein kinase Blk (Homo sapiens) (P51451 2-505 limits assumed): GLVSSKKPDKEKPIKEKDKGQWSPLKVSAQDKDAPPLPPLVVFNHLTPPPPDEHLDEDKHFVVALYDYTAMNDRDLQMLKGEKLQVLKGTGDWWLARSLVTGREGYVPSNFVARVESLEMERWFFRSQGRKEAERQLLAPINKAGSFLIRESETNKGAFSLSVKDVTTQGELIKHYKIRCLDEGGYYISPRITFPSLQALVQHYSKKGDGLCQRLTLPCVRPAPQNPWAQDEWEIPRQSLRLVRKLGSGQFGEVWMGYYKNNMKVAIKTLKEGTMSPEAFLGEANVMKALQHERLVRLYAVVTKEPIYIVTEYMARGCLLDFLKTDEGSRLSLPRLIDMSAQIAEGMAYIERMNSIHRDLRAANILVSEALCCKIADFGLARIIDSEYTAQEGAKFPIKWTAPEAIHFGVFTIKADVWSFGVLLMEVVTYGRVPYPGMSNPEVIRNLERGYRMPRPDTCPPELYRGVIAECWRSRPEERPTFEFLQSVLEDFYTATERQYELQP

[23] = target: Protein kinase C beta type (Homo sapiens) (UniProt P05771); experiment: Inhibition of recombinant full length human PRKCB1 expressed in baculovirus at 500 nM by Z'-LYTE assay
Sequence of Protein kinase C beta type (Homo sapiens) (P05771 2-671 limits assumed): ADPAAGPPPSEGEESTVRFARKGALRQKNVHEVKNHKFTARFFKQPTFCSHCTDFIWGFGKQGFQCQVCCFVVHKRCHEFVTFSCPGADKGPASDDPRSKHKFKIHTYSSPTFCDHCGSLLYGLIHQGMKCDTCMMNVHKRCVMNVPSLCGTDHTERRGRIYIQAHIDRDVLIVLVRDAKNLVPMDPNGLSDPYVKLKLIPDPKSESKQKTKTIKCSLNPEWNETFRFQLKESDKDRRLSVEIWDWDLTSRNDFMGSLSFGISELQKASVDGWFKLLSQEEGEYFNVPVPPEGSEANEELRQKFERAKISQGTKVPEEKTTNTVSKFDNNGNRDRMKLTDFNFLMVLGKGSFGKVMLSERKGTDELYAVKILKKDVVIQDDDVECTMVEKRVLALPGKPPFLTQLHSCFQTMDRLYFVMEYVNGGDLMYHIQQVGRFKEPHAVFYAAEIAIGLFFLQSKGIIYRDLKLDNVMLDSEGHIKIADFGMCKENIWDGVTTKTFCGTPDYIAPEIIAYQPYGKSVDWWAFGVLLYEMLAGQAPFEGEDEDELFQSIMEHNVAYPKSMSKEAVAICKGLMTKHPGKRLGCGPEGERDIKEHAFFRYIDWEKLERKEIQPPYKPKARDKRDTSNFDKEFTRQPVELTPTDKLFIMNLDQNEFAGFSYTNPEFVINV

[24] = target: Protein kinase C alpha type (Homo sapiens) (UniProt P17252); experiment: Inhibition of recombinant full length human PRKCA expressed in baculovirus at 500 nM by Z'-LYTE assay
[25] = target: Tyrosine-protein kinase JAK2 (Homo sapiens) (UniProt O60674); experiment: Inhibition of GST tagged recombinant human JAK2 (809 to 1153 + 9 residues) expressed in baculovirus at 500 nM by Z'-LYTE assay
[26] = target: Serine/threonine-protein kinase pim-2 (Homo sapiens) (UniProt Q9P1W9); experiment: Inhibition of GST tagged recombinant full length human PIM2 expressed in baculovirus at 500 nM by Z'-LYTE assay

Row | SMILES | IC50 [1] | inhibition [2] | inhibition [3] | inhibition [4] | inhibition [5] | inhibition [6] | inhibition [7] | inhibition [8] | inhibition [9] | inhibition [10] | inhibition [11] | inhibition [12] | inhibition [13] | inhibition [14] | inhibition [15] | inhibition [16] | inhibition [17] | inhibition [18] | inhibition [19] | inhibition [20] | also measured
1 | C[C@@H](Nc1ncnc2oc(-c3ccc(NCCN4CCCCC4)cc3)cc12)c1ccccc1 | 0.6 nM | 46% | 2% | 8% | 18% | 56% | -1% | 4% | 17% | 37% | 11% | 9% | 8% | 78% | 34% | 7% | 21% | 15% | 16% | 30% | inhibition [21]: 12%; inhibition [22]: 0%
2 | C#Cc1cccc(Nc2ncnc3cc(OCCOC)c(OCCOC)cc23)c1 |  |  |  |  |  |  |  |  |  |  |  |  |  |  |  |  |  |  |  |  | inhibition [23]: -2%; inhibition [24]: 2%
3 | C[C@@H](Nc1ncnc2oc(-c3ccc(NCCN(C)C)cc3)cc12)c1ccccc1 | 0.4 nM | 41% | -1% | 9% | 32% | 60% | -3% | 4% | 12% | 35% | 11% | 8% | 12% | 79% | 26% | 19% | 31% | 23% | 15% | 37% | inhibition [23]: -10%; inhibition [25]: -8%; inhibition [26]: -3%; inhibition [24]: -9%; inhibition [21]: 13%; inhibition [22]: 3%
